# Values quoted from earlier work, collected in patent publication US20250161299A1, “ORAL PCLX-001 IN THE TREATMENT OF HUMAN CANCER” (PACYLEX PHARMACEUTICALS INC., priority 2022, published 2025).
# Where two headings read alike, the source gives them in different places.
# What was measured:
# implanted human tumors = settings: cited from earlier work
# [1] = test system: Melanoma cultured human cancer cells; settings: mean among sensitive cell lines, cited from earlier work; for IC50: read-out: IC50 mean +/− SD
# [2] = test system: Pancreas cultured human cancer cells; settings: mean among sensitive cell lines, cited from earlier work
# [3] = first panel, read-out: EC50 mean +/− SD
smiles,measurement,setting,value
"Cc1c(NS(=O)(=O)c2c(Cl)cc(-c3ccnc(N4CCNCC4)c3)cc2Cl)c(CC(C)C)nn1C [PCLX-001, 2,6-dichloro-N-(3-isobutyl-1,5-dimethyl-1H-pyrazol-4-yl)-4-(2-(piperazin-1-yl)pyridin-4-yl)benzene sulfonamide]",anticancer activity in mice bearing human cancers,implanted human tumors; 10 mg/kg or lower,no evident anticancer activity
same,anti-cancer effects in mice with implanted human tumors,implanted human tumors; 35 mg/kg and higher doses,had anti-cancer effects
same,response of human cancers grown in immunodeficient mice,implanted human tumors; preclinical studies,complete remissions
same,EC50,[1]; [3],0.134 ± 0.0539 µM
same,IC50,[1]; second panel,0.208 ± 0.0995 µM
same,IC50,[1]; third panel,0.157 ± 0.192 µM
same,EC50,[2]; [3],0.109 ± 0.09 µM
same,IC50,"[2]; second panel, read-out: IC50 mean +/− SD",0.0777 ± 0.0137 µM
